Test results taken from US4118561A, “7-(Substituted)-7H-pyrrolo[3,2-f]quinazoline-1,3-diamines” (priority 1977, dated 1978).
Converted amounts (≈) assume the structure as drawn.

Tests used:
N. catarrhalis 8193 = assay: In vitro antibacterial activity (MIC), N. catarrhalis 8193; conditions: 18 h
K. pneumoniae 10031 = assay: In vitro antibacterial activity (MIC), K. pneumoniae 10031; conditions: Klebsiella pneumoniae, 10031, 18 h
S. aureus Smith = assay: In vitro antibacterial activity (MIC), S. aureus Smith; conditions: Staphylococcus aureus, 18 h
P. vulgaris 6896 = assay: In vitro antibacterial activity (MIC), P. vulgaris 6896; conditions: Proteus vulgaris, 6896, 18 h
S. paratyphi 11737 = assay: In vitro antibacterial activity (MIC), S. paratyphi 11737; assay type: cell-based; conditions: Salmonella enterica, 18 h
S. aureus 53-180 = assay: In vitro antibacterial activity (MIC), S. aureus 53-180; conditions: Staphylococcus aureus, 53180, 18 h
E. coli 9637 = assay: In vitro antibacterial activity (MIC), E. coli 9637; conditions: Escherichia coli, 9637, 18 h

Row | SMILES | MIC (N. catarrhalis 8193) [µg/mL] | MIC (K. pneumoniae 10031) [µg/mL] | MIC (S. aureus Smith) [µg/mL] | MIC (P. vulgaris 6896) [µg/mL] | MIC (S. paratyphi 11737) [µg/mL] | MIC (S. aureus 53-180) [µg/mL] | MIC (E. coli 9637) [µg/mL]
1 | Nc1nc(N)c2c(ccc3c2cc(Cl)n3Cc2ccccc2)n1 [Example 104, 8-Chloro-7-(phenylmethyl)-7H-pyrrolo-[3,2-f]quinazoline-1,3-diamine] | 0.061 (≈ 0.188 µM) | 0.244 (≈ 0.754 µM) | 3.9 (≈ 12 µM) | 31.3 (≈ 96.7 µM) | 7.81 (≈ 24.1 µM) | 0.976 (≈ 3.01 µM) | 3.9 (≈ 12 µM)
2 | Cc1cc(-n2ccc3c4c(N)nc(N)nc4ccc32)nc2ccccc12 [Example 88] | 0.061 (≈ 0.179 µM) | 31.3 (≈ 92 µM) | 62.5 (≈ 184 µM) | > 250 | > 250 | 31.3 (≈ 92 µM) | 62.5 (≈ 184 µM)
3 | Cn1ccc2c3c(N)nc(N)nc3ccc21 [Example 65, 7-Methyl-7H-pyrrolo[3,2-f]quinazoline-1,3-diamine] | 0.031 (≈ 0.145 µM) | 1.95 (≈ 9.14 µM) | 62.5 (≈ 293 µM) | 1.95 (≈ 9.14 µM) | 3.9 (≈ 18.3 µM) | 7.81 (≈ 36.6 µM) | 0.976 (≈ 4.58 µM)
4 | Nc1nc(N)c2c(ccc3c2ccn3-c2ccccn2)n1 [Example 83] | 0.0076 (≈ 0.0275 µM) | 0.244 (≈ 0.883 µM) | 0.976 (≈ 3.53 µM) | 0.976 (≈ 3.53 µM) | 0.976 (≈ 3.53 µM) | 0.488 (≈ 1.77 µM) | 0.488 (≈ 1.77 µM)
5 | Nc1nc(N)c2c(ccc3c2ccn3-c2cnccn2)n1 [Example 85] | 0.122 (≈ 0.44 µM) | 0.976 (≈ 3.52 µM) | 3.9 (≈ 14.1 µM) | 3.9 (≈ 14.1 µM) | 3.9 (≈ 14.1 µM) | 1.95 (≈ 7.03 µM) | 0.976 (≈ 3.52 µM)
6 | Nc1nc(N)c2c(ccc3c2ccn3CC2CCCO2)n1 (centres unmarked) [Example 67, 7-[(Tetrahydro-2-furanyl)methyl]-7H-pyrrolo-[3,2-f]quinazoline-1,3-diamine] | 0.0038 (≈ 0.0134 µM) | 0.488 (≈ 1.72 µM) | 3.9 (≈ 13.8 µM) | 3.9 (≈ 13.8 µM) | 7.81 (≈ 27.6 µM) | 0.976 (≈ 3.44 µM) | 1.95 (≈ 6.88 µM)
7 | COc1cc(Cn2ccc3c4c(N)nc(N)nc4ccc32)cc(OC)c1 [Example 58] | 0.061 (≈ 0.175 µM) | 0.122 (≈ 0.349 µM) | 0.488 (≈ 1.4 µM) | 15.6 (≈ 44.6 µM) | 1.95 (≈ 5.58 µM) | 0.244 (≈ 0.698 µM) | 0.976 (≈ 2.79 µM)
8 | Nc1nc(N)c2c(ccc3c2ccn3-c2ccnc3cc(C(F)(F)F)ccc23)n1 [Example 90] | 0.031 (≈ 0.0786 µM) | 0.244 (≈ 0.619 µM) | 0.122 (≈ 0.309 µM) | 250 (≈ 634 µM) | 31.3 (≈ 79.4 µM) | 0.031 (≈ 0.0786 µM) | 0.244 (≈ 0.619 µM)
9 | Nc1nc(N)c2c(ccc3c2ccn3Cc2cscn2)n1 [Example 42] | 0.0038 (≈ 0.0128 µM) | 0.122 (≈ 0.412 µM) | 0.488 (≈ 1.65 µM) | 0.976 (≈ 3.29 µM) | 0.976 (≈ 3.29 µM) | 0.244 (≈ 0.823 µM) | 0.244 (≈ 0.823 µM)
10 | Cc1noc(C)c1Cn1ccc2c3c(N)nc(N)nc3ccc21 [Example 52] | 0.0152 (≈ 0.0493 µM) | 0.244 (≈ 0.791 µM) | 1.95 (≈ 6.32 µM) | 3.9 (≈ 12.6 µM) | 1.95 (≈ 6.32 µM) | 0.976 (≈ 3.17 µM) | 0.976 (≈ 3.17 µM)
11 | Nc1nc(N)c2c(ccc3c2c2c(n3Cc3ccccc3)CCCC2)n1 [Example 108, 8,9,10,11-Tetrahydro-7-(phenylmethyl)-7H-pyrimido[4,5-c]carbazole-1,3-diamine] | 0.122 (≈ 0.355 µM) | > 250 | > 250 | > 250 | > 250 | 250 (≈ 728 µM) | > 250
12 | Nc1nc(N)c2c(ccc3c2ccn3-c2cc(-c3ccccc3)nc3ccccc23)n1 [Example 95] | 15.6 (≈ 38.8 µM) | 250 (≈ 621 µM) | 31.3 (≈ 77.8 µM) | > 250 | > 250 | 7.81 (≈ 19.4 µM) | 250 (≈ 621 µM)
13 | Cc1cc2c3c(N)nc(N)nc3ccc2n1Cc1ccc(C#N)cc1 [Example 102] | 0.061 (≈ 0.186 µM) | 0.244 (≈ 0.743 µM) | 0.976 (≈ 2.97 µM) | 31.3 (≈ 95.3 µM) | 7.81 (≈ 23.8 µM) | 0.976 (≈ 2.97 µM) | 1.95 (≈ 5.94 µM)
14 | Cc1cc2c3c(N)nc(N)nc3ccc2n1Cc1cccc(C#N)c1 [Example 101] | 0.0038 (≈ 0.0116 µM) | 0.061 (≈ 0.186 µM) | 0.122 (≈ 0.372 µM) | 3.9 (≈ 11.9 µM) | 3.9 (≈ 11.9 µM) | 0.061 (≈ 0.186 µM) | 0.488 (≈ 1.49 µM)
15 | Nc1nc(N)c2c(ccc3c2ccn3-c2ncccn2)n1 [Example 84] | 0.061 (≈ 0.22 µM) | 0.976 (≈ 3.52 µM) | 15.6 (≈ 56.3 µM) | > 250 | > 250 | 3.9 (≈ 14.1 µM) | 7.81 (≈ 28.2 µM)
16 | Nc1nc(N)c2c(ccc3c2ccn3CC=Cc2ccccc2)n1 [Example 57] | 0.122 (≈ 0.387 µM) | 0.488 (≈ 1.55 µM) | 1.95 (≈ 6.18 µM) | 7.81 (≈ 24.8 µM) | 15.6 (≈ 49.5 µM) | 0.976 (≈ 3.09 µM) | 3.9 (≈ 12.4 µM)
17 | Nc1nc(N)c2c(ccc3c2ccn3-c2ccc([N+](=O)[O-])cc2[N+](=O)[O-])n1 [Example 78] | 0.0019 (≈ 0.0052 µM) | 0.031 (≈ 0.0849 µM) | 0.0076 (≈ 0.0208 µM) | > 250 | > 250 | 0.0076 (≈ 0.0208 µM) | 3.9 (≈ 10.7 µM)
